“Also recorded” adds a separate entry of the source.
What was measured:
[1] = target: T1, hMAO-B (Homo sapiens, UniProt P27338); test: in vitro fluorometric hMAO-B inhibition assay (Amplex Red); assay type: biochemical
T1 sequence (P27338 1-520): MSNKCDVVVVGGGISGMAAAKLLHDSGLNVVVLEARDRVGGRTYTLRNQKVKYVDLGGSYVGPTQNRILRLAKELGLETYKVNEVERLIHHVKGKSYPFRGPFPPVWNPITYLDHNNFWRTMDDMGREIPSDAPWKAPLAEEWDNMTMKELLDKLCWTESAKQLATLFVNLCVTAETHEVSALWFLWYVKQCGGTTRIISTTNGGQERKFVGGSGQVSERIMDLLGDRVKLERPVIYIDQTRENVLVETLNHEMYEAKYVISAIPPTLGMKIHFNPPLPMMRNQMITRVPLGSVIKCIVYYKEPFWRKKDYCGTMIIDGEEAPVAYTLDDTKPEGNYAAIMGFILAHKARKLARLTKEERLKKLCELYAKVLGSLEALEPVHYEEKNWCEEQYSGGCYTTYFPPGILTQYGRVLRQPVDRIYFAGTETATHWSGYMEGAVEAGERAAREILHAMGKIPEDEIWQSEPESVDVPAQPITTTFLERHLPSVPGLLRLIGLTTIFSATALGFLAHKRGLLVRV
Description: The method was performed in two steps, as previously described.
An enzyme inhibition assay was performed according to our recent study. […] After the incubation period, the reaction was started by adding a working solution (100 μL/well) ([…] Amplex Red reagent, 1 U/mL horseradish peroxidase and 1 mM p-tyramine) and all pipetting processes were performed using a Biotek Precision XS robotic system (BioTek Instruments, Winooski, VT, USA).
Control experiments were carried out simultaneously by replacing the inhibitor solution with 2% DMSO (20 μL). In order to check the probable inhibitory effect of inhibitors on horseradish peroxidase, a parallel reading was achieved by replacing enzyme solutions with 3% H2O2 solution (20 mM 100 μL/well). In addition, the probable capacity of the inhibitors to modify the fluorescence generated in the reaction mixture due to non-enzymatic inhibition was determined by mixing inhibitor and working solutions.
The specific fluorescence emission (used to obtain the final results) was calculated after subtraction of the background activity, which was determined from vials containing all components except the hMAO isoforms, which were replaced by phosphate buffer (100 μL/well). Blank, control and all concentrations of inhibitors were analyzed in quadruplicate and inhibition percent was calculated by using following equation: % Inhibition=(FCt2−FCt1)−(FIt2−FIt1)/FCt2−FCt1×100 where FCt2 is the fluorescence of a control well measured at t2 time; FCt1 is the fluorescence of a control well measured at t1 time; FIt2 is the fluorescence of an inhibitor well measured at t2 time; and FIt1 is the fluorescence of an inhibitor well measured at t1 time.
The IC50 values were calculated from a dose-response curve obtained by plotting the percentage inhibition versus the log concentration with the use of GraphPad PRISM software (version 5.0, GraphPad Software Inc., La Jolla, CA, USA).

[2] = test system: NIH/3T3 mouse embryonic fibroblast cell line; test: cytotoxicity test (MTT) on NIH/3T3 cells; assay type: cell-based
Description: (§1) The healthy NIH/3T3 mouse embryonic fibroblast cell line (ATCC CRL1658), proposed by ISO (10993-5, 2009) for preliminary cytotoxicity screening of drug candidates, was used to evaluate the cytotoxicity of compound 3e. The IC50 value of the compound 3e is represented in Table 3.
(§2) NIH/3T3 mouse embryonic fibroblast cell line (ATCC® CRL-1658™, London, UK) was used in the cytotoxicity test and, initially, NIH/3T3 cells were incubated in Dulbecco’s Modified Eagle’s Medium (DMEM). NIH/3T3 cells were added to 96-well culture plates (10,000 cells/well). Synthesized compounds and reference agents were added to the 96-well culture plates at various concentrations ranging from 1000 µM to 0.316 µM. MTT assay was performed as previously described. Dose-response curves were plotted against compound concentrations applied to determine IC50 values.

[3] = cytotoxicity test (MTT) on NIH/3T3 cells; assay type: cell-based, mouse; conditions: mouse, NIH/3T3 mouse embryonic fibroblast cells (ATCC CRL-1658); MTT assay, 1000 µM to 0.316 µM; read-out: IC50 (cytotoxic activity against NIH/3T3 cell line)
Description: as §1, §2

COc1ccc2sc(SCC(=O)NN=Cc3ccc([N+](=O)[O-])s3)nc2c1 [Compound 3e, 2-((5-Methoxybenzothiazol-2-yl)thio)-N′-((5-nitrothiophen-2-yl)methylene)acetohydrazide]
inhibition at 1000 µM ([1]; 10^−3 M, read-out: MAO B Inhibition %): 87.3% | inhibition against hMAO-B (first screening step) ([1]; 10^−3 and 10^−4 M): more than 50% | inhibition at 100 µM ([1]; 10^−4 M, read-out: MAO B Inhibition %): 83.5% | IC50 ([1]; concentrations of 10^−5–10^−9 M, mean ± SD, read-out: MAO B IC50): 0.06 ± 0.002 µM | fold IC50 against NIH/3T3 higher than IC50 against hMAO-B ([2]; IC50 NIH/3T3 vs IC50 hMAO-B): ca. 300 fold | cytotoxicity (in words) ([2]; NIH/3T3, at its effective concentration): not cytotoxic; also recorded: non-cytotoxic | IC50 [3]: 19 ± 1.03 µM
